According to publication PMC10114980, “Triple targeting of mutant EGFR^L858R/T790M, COX-2, and 15-LOX: design and synthesis of novel quinazolinone tethered phenyl urea derivatives for anti-inflammatory and anticancer evaluation” (Journal of Enzyme Inhibition and Medicinal Chemistry, 2023):
Where “and” joins values, the source holds several entries; their conditions need not be identical. Equal values may be shown once.

Tests used:
SR = assay: NCI single dose screen, SR; type: cell-based; details: Homo sapiens, leukaemia, single dose 10^−5 M, read-out: growth inhibition percentage
Procedure: (§1) Screening of the anticancer activity of the newly synthesised compounds (6a, 6c, 6d, 6e, 6j, 6l, 6m, 6n, 6o, and 6p) was performed by the US National Cancer Institute (NCI) using 60 different human tumour cell lines in accordance with standard procedures formerly reported.
(§2) In vitro anticancer screening was carried out for the selected compounds at a single dose (10^−5 M) against 60 different human tumour cell lines of nine different cancer cell types: leukaemia, lung, colon, CNS, melanoma, ovarian, renal, prostate, and breast cancers.

OVCAR-3 = assay: NCI single dose screen, OVCAR-3; type: cell-based; details: Homo sapiens; OVCAR-3, ovarian cancer; single dose 10^−5 M; read-out: growth inhibition percentage
Procedure: as §1, §2

EKVX = assay: NCI single dose screen, EKVX; type: cell-based; details: Homo sapiens, non-small cell lung cancer, single dose 10^−5 M, read-out: growth inhibition percentage
Procedure: as §1, §2

U251 = assay: NCI single dose screen, U251; type: cell-based; details: Homo sapiens, U-251; U251, CNS cancer; single dose 10^−5 M; read-out: growth inhibition percentage
Procedure: as §1, §2

[1] = Cell viability assay against normal cell line (MTS); type: cell-based; details: mouse, RAW 264.7 cells, concentrations up to 50 μM, read-out: cell viability percentage of the control values
Procedure: To evaluate the possible non-selective cytotoxic effect of the investigated compounds (6a, 6c, 6d, 6e, 6j, 6l, 6m, 6n, 6o, and 6p) on normal cells, their effect on RAW 264.7 cells viability was assessed at different concentrations (12.5, 25, 50, and 100 µM). Cell viability was measured using 3-(4,5-dimethylthiazol-2-yl)-5-(3-carboxymethoxyphenyl)-2-(4 sulfophenyl)-2H-tetrazolium (MTS) assay (Promega, Madison, Wisconsin) according to the manufacturer’s instructions.

[2] = test system: LPS-induced IL-6 production in RAW 264.7 cells; assay: IL-6 production in LPS-activated RAW 264.7 cells (ELISA); type: cell-based; details: LPS-activated RAW 264.7 cells treated with 25 µM of the compound
OVCAR-4 = assay: NCI single dose screen, OVCAR-4; type: cell-based; details: Homo sapiens; OVCAR-4, ovarian cancer; single dose 10^−5 M; read-out: growth inhibition percentage
Procedure: as §1, §2

HCC-2998 = assay: NCI single dose screen, HCC-2998; type: cell-based; details: Homo sapiens; HCC-2998, colon cancer; single dose 10^−5 M; read-out: growth inhibition percentage
Procedure: as §1, §2

MALME-3M = assay: NCI single dose screen, MALME-3M; type: cell-based; details: Homo sapiens, melanoma, single dose 10^−5 M, read-out: growth inhibition percentage
Procedure: as §1, §2

OVCAR-8 = assay: NCI single dose screen, OVCAR-8; type: cell-based; details: Homo sapiens; OVCAR-8, ovarian cancer; single dose 10^−5 M; read-out: growth inhibition percentage
Procedure: as §1, §2

MDA-MB-231/ATCC = assay: NCI single dose screen, MDA-MB-231/ATCC; type: cell-based; details: Homo sapiens, breast cancer, single dose 10^−5 M, read-out: growth inhibition percentage
Procedure: as §1, §2

NCI-H522 = assay: NCI single dose screen, NCI-H522; type: cell-based; details: Homo sapiens; NCI-H522, non-small cell lung cancer; single dose 10^−5 M; read-out: growth inhibition percentage
Procedure: as §1, §2

HL-60(TB) = assay: NCI single dose screen, HL-60(TB); type: cell-based; details: Homo sapiens, leukaemia, single dose 10^−5 M, read-out: growth inhibition percentage
Procedure: as §1, §2

A498 = assay: NCI single dose screen, A498; type: cell-based; details: Homo sapiens; A498, renal cancer; single dose 10^−5 M; read-out: growth inhibition percentage
Procedure: as §1, §2

wild-type EGFR = biological target: T1, wild-type EGFR (Homo sapiens, UniProt P00533); assay: In vitro EGFR inhibition assay, wild type; type: biochemical; details: for IC50: read-out: EGFR^WT IC50
T1 construct: purchased AssayQuant Technologies, Inc. (Marlboro, MA, USA)

CAKI-1 = assay: NCI single dose screen, CAKI-1; type: cell-based; details: Homo sapiens; CAKI-1, renal cancer; single dose 10^−5 M; read-out: growth inhibition percentage
Procedure: as §1, §2

M14 = assay: NCI single dose screen, M14; type: cell-based; details: Homo sapiens; M14, melanoma; single dose 10^−5 M; read-out: growth inhibition percentage
Procedure: as §1, §2

DU-145 = assay: NCI single dose screen, DU-145; type: cell-based; details: Homo sapiens; DU-145, prostate cancer; single dose 10^−5 M; read-out: growth inhibition percentage
Procedure: as §1, §2

786-0 = assay: NCI single dose screen, 786-0; type: cell-based; details: Homo sapiens; 786-0, renal cancer; single dose 10^−5 M; read-out: growth inhibition percentage
Procedure: as §1, §2

[3] = biological target: T2, double mutant EGFR^L858R/T790M (Homo sapiens, UniProt P00533, L858R/T790M); assay: In vitro EGFR inhibition assay, double mutant; type: biochemical; details: for IC50: double mutant EGFR; for Selectivity (SI): ratio of the IC50 values EGFR^WT/EGFR^L858R/T790M
T2 construct: purchased AssayQuant Technologies, Inc. (Marlboro, MA, USA)

SK-MEL-28 = assay: NCI single dose screen, SK-MEL-28; type: cell-based; details: Homo sapiens; SK-MEL-28, melanoma; single dose 10^−5 M; read-out: growth inhibition percentage
Procedure: as §1, §2

UACC-62 = assay: NCI single dose screen, UACC-62; type: cell-based; details: Homo sapiens; UACC-62, melanoma; single dose 10^−5 M; read-out: growth inhibition percentage
Procedure: as §1, §2

RXF 393 = assay: NCI single dose screen, RXF 393; type: cell-based; details: Homo sapiens; RXF 393, renal cancer; single dose 10^−5 M; read-out: growth inhibition percentage
Procedure: as §1, §2

TK-10 = assay: NCI single dose screen, TK-10; type: cell-based; details: Homo sapiens; TK-10, renal cancer; single dose 10^−5 M; read-out: growth inhibition percentage
Procedure: as §1, §2

T1 sequence (P00533 25-1210): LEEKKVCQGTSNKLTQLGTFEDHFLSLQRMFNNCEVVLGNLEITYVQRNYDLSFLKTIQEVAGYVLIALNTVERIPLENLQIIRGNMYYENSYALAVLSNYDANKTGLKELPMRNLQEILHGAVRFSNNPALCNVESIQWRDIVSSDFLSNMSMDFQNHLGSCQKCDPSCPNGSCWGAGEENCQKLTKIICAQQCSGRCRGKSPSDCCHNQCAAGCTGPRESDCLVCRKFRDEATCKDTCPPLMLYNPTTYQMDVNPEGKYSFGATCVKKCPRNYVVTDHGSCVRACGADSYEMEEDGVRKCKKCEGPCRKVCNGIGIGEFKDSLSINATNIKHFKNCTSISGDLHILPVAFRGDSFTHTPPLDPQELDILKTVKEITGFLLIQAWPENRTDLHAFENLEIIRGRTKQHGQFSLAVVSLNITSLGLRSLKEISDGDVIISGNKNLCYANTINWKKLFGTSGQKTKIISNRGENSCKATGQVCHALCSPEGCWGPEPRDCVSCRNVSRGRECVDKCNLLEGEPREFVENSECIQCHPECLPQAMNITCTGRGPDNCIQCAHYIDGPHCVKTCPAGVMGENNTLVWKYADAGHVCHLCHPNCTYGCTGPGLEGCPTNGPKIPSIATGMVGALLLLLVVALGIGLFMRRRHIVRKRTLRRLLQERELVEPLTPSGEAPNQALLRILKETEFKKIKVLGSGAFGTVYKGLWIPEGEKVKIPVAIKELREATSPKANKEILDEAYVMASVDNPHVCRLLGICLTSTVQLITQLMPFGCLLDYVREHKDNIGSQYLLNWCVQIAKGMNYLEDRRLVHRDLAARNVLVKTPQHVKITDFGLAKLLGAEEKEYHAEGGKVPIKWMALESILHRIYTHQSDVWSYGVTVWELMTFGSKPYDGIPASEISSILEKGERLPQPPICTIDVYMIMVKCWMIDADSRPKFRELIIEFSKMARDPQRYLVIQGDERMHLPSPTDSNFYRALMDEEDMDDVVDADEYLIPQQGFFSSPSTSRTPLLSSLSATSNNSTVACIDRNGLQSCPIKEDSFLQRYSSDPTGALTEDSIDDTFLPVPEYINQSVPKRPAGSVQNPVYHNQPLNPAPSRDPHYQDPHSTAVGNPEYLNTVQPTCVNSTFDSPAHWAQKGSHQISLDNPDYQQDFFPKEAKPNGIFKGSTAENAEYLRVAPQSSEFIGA
T2 sequence (P00533 25-1210 T790M/L858R): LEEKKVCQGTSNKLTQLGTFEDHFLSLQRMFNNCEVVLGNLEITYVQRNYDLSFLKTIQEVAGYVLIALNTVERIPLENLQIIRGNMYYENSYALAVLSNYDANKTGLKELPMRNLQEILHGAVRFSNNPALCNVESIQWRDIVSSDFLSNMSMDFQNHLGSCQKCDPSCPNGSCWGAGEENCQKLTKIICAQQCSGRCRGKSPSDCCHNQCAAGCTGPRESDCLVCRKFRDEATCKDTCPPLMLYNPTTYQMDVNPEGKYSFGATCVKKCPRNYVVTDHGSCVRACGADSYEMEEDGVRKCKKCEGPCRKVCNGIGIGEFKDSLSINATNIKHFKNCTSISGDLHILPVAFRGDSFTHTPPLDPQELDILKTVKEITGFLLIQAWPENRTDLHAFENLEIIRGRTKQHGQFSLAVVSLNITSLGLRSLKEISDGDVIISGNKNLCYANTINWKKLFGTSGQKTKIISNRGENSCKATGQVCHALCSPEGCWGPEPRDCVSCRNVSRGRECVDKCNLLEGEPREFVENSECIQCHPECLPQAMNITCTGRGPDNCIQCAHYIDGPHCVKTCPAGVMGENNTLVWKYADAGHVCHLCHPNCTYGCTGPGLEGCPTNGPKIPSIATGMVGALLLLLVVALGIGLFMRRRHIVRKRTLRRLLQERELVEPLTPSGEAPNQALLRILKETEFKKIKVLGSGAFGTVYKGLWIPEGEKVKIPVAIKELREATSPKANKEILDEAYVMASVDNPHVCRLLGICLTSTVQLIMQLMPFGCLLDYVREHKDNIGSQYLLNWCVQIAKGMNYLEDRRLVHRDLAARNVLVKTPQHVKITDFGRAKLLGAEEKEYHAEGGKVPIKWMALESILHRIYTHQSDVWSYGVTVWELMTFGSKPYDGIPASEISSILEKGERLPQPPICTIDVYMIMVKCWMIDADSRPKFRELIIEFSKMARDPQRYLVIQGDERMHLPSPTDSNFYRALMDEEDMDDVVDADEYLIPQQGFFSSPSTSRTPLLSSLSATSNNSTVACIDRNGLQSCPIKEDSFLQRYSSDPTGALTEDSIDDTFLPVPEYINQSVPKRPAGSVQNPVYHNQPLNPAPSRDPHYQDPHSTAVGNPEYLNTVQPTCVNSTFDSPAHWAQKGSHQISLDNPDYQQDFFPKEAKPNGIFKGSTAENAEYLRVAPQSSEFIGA

| SMILES | inhibition at 10 µM (SR) [%] | inhibition at 10 µM (OVCAR-3) [%] | inhibition at 10 µM (EKVX) [%] | inhibition at 10 µM (U251) [%] | viability [1] [%] | IL-6 concentration [2] | inhibition at 10 µM (OVCAR-4) [%] | inhibition at 10 µM (HCC-2998) [%] | inhibition at 10 µM (MALME-3M) [%] | inhibition at 10 µM (OVCAR-8) [%] | inhibition at 10 µM (MDA-MB-231/ATCC) [%] | inhibition at 10 µM (NCI-H522) [%] | inhibition at 10 µM (HL-60(TB)) [%] | inhibition at 10 µM (A498) [%] | IC50 (wild-type EGFR) [µM] | inhibition at 10 µM (CAKI-1) [%] | inhibition at 10 µM (M14) [%] | inhibition at 10 µM (DU-145) [%] | inhibition at 10 µM (786-0) [%] | IC50 [3] [µM] | also measured |
| --- | --- | --- | --- | --- | --- | --- | --- | --- | --- | --- | --- | --- | --- | --- | --- | --- | --- | --- | --- | --- | --- |
| COc1ccc(C2N(NC(=O)Nc3ccc(F)cc3)C(=O)c3ccccc3N2C)cc1 (stereo not drawn) [Compound 6p, 1-(4-Fluorophenyl)-3-(2–(4-methoxyphenyl)-1-methyl-4-oxo-1,4-dihydroquinazolin-3(2H)-yl)urea] | < 10 | 17.1 | < 10 | < 10 | > 90 | 237.2 ± 3.19 pg/mL | < 10 | < 10 | < 10 | < 10 | 12.6 | < 10 | < 10 | < 10 | > 100 | < 10 | 11.8 | < 10 | < 10 | 5.41 ± 3.21 | Selectivity (SI) [3]: >18.5; inhibition at 10 µM (SK-MEL-28): < 10%; inhibition at 10 µM (UACC-62): < 10%; inhibition at 10 µM (RXF 393): < 10%; inhibition at 10 µM (TK-10): < 10% |
| CN1CN(NC(=O)Nc2ccccc2)C(=O)c2ccccc21 [Compound 6a, 1-(1-Methyl-4-oxo-1,4-dihydroquinazolin-3(2H)-yl)-3-phenylurea] | < 10 | < 10 | < 10 | < 10 | > 90 | 173.7 ± 4.77 pg/mL | < 10 | < 10 | < 10 | < 10 | < 10 | < 10 | < 10 | < 10 | > 100 | < 10 | < 10 | < 10 | < 10 | 0.46 ± 1.11 | EGFR^WT IC50 (wild-type EGFR): no significant activity; Selectivity (SI) [3]: >217; inhibition at 10 µM (SK-MEL-28): < 10%; inhibition at 10 µM (UACC-62): < 10%; inhibition at 10 µM (RXF 393): < 10%; inhibition at 10 µM (TK-10): < 10% |
| CN1c2ccccc2C(=O)N(NC(=O)Nc2ccccc2)C1c1ccc([N+](=O)[O-])cc1 (stereo not drawn) [Compound 6e, 1-(1-Methyl-2-(4-nitrophenyl)-4-oxo-1,4-dihydroquinazolin-3(2H)-yl)-3-phenylurea] | < 10 | < 10 | < 10 | < 10 | > 90 | 198.8 ± 6.08 pg/mL | < 10 | < 10 | < 10 | < 10 | < 10 | < 10 | < 10 | < 10 | 48.7 ± 3.47 | < 10 | 67.2 | < 10 | 39.9 | 5.48 ± 1.33 | Selectivity (SI) [3]: 8.9; inhibition at 10 µM (SK-MEL-28): < 10%; inhibition at 10 µM (UACC-62): < 10%; inhibition at 10 µM (RXF 393): < 10%; inhibition at 10 µM (TK-10): < 10% |
| CN1c2ccccc2C(=O)N(NC(=O)Nc2ccccc2)C1c1ccc(F)cc1 (stereo not drawn) [Compound 6d, 1-(2-(4-Fluorophenyl)-1-methyl-4-oxo-1,4-dihydroquinazolin-3(2H)-yl)-3-phenylurea] | < 10 | 12.5 | < 10 | < 10 | > 90 | 358.7 ± 12.85 pg/mL | < 10 | < 10 | < 10 | < 10 | < 10 | < 10 | < 10 | < 10 | > 100 | 13 | < 10 | < 10 | 11.9 | 5.57 ± 1.78 | Selectivity (SI) [3]: >17.9; inhibition at 10 µM (SK-MEL-28): < 10%; inhibition at 10 µM (UACC-62): 15.1%; inhibition at 10 µM (RXF 393): < 10%; inhibition at 10 µM (TK-10): < 10% |
| CN1c2ccccc2C(=O)N(NC(=O)Nc2ccc(F)cc2)C1c1ccc([N+](=O)[O-])cc1 (stereo not drawn) [Compound 6o, 1-(4-Fluorophenyl)-3–(1-methyl-2-(4-nitrophenyl)-4-oxo-1,4-dihydroquinazolin-3(2H)-yl)urea] | 12.2 | 22.7 | 19.8 | < 10 | > 90 | 37.23 pg/mL and 37.23 ± 1.19 pg/mL | 16.4 | < 10 | 14.1 | < 10 | 22.5 | < 10 | < 10 | < 10 | 52.4 ± 1.25 | 18.4 | 18 | < 10 | < 10 | 36 ± 2.58 | Selectivity (SI) [3]: 1.5; inhibition at 10 µM (SK-MEL-28): < 10%; inhibition at 10 µM (UACC-62): 27.4%; inhibition at 10 µM (RXF 393): < 10%; inhibition at 10 µM (TK-10): < 10% |
